This note sets out measurements from ChEMBL document CHEMBL1201862, “PubChem BioAssay data set” (2004).

Calls of active or inactive are those of the source.

Experiment [1] addresses Disintegrin and metalloproteinase domain-containing protein 17 (Homo sapiens, UniProt P78536). Kind of experiment: exosite inhibitors of ADAM17, dose response, biochemical (AID 743260).
In experiment [2] the target is T1, Fatty acid synthase (Homo sapiens, UniProt P49327). Kind of experiment: FAS thioesterase domain inhibitors, dose response, biochemical, endpoint fluorescence intensity, uHTS hits (AID 624327).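 Also: fluorescence from hydrolysis of an O-methyl fluorescein acyl ester substrate by the enzyme.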 Type of experiment: functional.
T1 sequence (P49327 whole entry, the tested form may be a part): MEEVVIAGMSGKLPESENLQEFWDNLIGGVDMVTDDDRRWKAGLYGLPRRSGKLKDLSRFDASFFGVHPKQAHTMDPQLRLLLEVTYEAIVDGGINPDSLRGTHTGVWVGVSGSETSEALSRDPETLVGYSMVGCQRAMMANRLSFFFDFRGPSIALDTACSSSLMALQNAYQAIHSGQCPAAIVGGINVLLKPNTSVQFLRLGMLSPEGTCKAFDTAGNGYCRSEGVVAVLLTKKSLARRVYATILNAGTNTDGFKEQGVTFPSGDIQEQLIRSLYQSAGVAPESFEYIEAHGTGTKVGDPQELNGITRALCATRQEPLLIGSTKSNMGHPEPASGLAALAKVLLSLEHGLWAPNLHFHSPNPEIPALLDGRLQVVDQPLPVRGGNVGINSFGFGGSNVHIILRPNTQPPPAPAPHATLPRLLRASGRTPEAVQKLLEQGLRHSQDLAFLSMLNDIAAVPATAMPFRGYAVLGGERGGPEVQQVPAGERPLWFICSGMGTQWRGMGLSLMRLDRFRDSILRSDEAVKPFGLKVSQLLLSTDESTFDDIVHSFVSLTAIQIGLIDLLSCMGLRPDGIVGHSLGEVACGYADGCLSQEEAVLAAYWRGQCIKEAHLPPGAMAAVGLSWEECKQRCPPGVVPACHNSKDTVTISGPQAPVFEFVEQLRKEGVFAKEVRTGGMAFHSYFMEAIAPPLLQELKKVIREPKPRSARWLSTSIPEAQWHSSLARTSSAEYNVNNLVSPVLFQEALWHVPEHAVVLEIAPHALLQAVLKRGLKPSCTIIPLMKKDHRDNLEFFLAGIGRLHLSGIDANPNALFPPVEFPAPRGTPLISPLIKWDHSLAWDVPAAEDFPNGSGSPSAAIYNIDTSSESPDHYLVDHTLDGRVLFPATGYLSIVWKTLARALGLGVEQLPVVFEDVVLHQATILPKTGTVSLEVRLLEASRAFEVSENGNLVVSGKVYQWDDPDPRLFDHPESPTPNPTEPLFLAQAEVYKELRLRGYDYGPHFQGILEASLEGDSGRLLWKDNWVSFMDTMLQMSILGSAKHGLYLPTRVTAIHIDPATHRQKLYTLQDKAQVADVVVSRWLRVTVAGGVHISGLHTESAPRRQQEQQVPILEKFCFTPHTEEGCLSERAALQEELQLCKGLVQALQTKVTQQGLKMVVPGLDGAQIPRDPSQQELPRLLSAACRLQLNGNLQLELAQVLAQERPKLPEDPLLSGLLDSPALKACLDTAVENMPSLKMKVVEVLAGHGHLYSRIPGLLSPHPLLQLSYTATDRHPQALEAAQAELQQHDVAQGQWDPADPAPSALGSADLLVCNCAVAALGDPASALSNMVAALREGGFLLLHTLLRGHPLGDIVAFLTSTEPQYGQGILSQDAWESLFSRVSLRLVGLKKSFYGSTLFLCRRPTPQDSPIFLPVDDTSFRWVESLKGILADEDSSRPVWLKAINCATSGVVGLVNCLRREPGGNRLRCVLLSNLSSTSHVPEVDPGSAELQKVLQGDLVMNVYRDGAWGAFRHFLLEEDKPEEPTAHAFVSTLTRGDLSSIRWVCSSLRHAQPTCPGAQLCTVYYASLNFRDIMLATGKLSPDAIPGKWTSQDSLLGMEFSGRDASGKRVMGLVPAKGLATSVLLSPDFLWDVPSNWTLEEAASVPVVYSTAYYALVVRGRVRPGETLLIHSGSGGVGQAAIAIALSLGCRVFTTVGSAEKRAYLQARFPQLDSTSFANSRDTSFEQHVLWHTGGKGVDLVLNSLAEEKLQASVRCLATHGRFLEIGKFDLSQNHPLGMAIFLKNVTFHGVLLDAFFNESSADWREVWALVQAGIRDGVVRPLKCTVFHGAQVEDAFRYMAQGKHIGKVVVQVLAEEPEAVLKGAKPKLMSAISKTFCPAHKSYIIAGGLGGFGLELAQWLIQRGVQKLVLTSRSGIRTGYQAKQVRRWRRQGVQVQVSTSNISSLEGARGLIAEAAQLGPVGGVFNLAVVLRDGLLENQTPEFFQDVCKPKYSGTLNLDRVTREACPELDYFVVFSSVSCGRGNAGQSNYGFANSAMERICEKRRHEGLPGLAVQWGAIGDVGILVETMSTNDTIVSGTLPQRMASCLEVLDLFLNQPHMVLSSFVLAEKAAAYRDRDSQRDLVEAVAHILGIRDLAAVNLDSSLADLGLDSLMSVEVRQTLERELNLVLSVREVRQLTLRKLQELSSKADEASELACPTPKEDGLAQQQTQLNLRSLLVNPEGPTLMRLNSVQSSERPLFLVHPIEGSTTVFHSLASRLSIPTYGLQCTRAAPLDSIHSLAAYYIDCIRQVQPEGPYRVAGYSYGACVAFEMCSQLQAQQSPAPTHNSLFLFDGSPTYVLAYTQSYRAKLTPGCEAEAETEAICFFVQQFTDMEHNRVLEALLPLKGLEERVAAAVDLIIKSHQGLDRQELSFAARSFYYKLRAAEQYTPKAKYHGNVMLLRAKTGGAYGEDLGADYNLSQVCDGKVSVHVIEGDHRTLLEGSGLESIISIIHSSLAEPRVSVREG
Experiment [3] addresses T1, Fatty acid synthase. As to the kind of experiment: FAS thioesterase domain inhibitors, dose response, biochemical, kinetic fluorescence intensity (AID 624326).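 Also: rate of fluorescence rise from hydrolysis of a fluorogenic O-methyl fluorescein ester substrate.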 Type of experiment: functional.
Experiment [4] can be described thus: HepG2 cell cytotoxicity, dose response, cytotoxicity control, plate reader, dry powder samples (AID 1159569).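 Also: inhibitor potency with signal falling toward the positive control level.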 Type of experiment: functional, cell-based.
The nature of experiment [5]: P. falciparum Dd2 growth inhibitors, dose response, SYBR Green, cherry-picked samples (AID 1159567). It counts as functional, cell-based.
The nature of experiment [6]: P. falciparum 3D7-ScDHODH growth inhibitors, dose response, SYBR Green, dry powder samples (AID 1159570).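 Also: parasite growth measured after 72 hours of compound exposure.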 It counts as functional, cell-based.
Experiment [7] in a line: P. falciparum Dd2 growth inhibitors, dose response, SYBR Green, dry powder samples (AID 1159566).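 Also: potency for growth inhibition with lower SYBR green DNA signal.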 It counts as functional, cell-based.
The nature of experiment [8]: P. falciparum ATP4 D1247Y mutant growth inhibitors, dose response, NITD609-resistant line, SYBR Green, dry powder (AID 1159571).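 Also: parasites synchronized at ring stage by sorbitol before testing.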 Type of experiment: functional, cell-based.
The target in the next experiment is Prothrombin (Homo sapiens, UniProt P00734). Kind of experiment: Thrombin 1536 HTS Dose Response Confirmation. [Related pubchem assays: 1046 (Thrombin 1536 HTS; hits were confirmed in this assay)]. It counts as functional.
Experiment [9] in a line: P. falciparum late gametocyte killing, dose response, luminescence (AID 1117278).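 Also: gametocytes exposed to compound for 24 hours.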 It counts as functional, cell-based.
Experiment [10] is described as follows: Jurkat T cell cytotoxicity, dose response, cytotoxicity control for P. falciparum gametocyte viability project, luminescence (AID 1117277).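 Also: potency reflects loss of cellular ATP meaning fewer viable cells.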 It counts as functional, cell-based.
Experiment [11] in a line: A cytotoxicity screen of small molecule inhibitors of the PhoP region in Salmonella typhi identified in the primary screen. [Related pubchem assays: 1850, 1864, 1985 ]. It counts as functional.
The nature of experiment [12]: cytotoxicity in OVCAR8 ovarian cancer cells, dose response, PAX8 project, cell-based, plate reader, dry powder samples (AID 743197). It counts as functional. Conditions: OVCAR-8.
Experiment [13] in a line: A2780 ovarian cancer cell cytotoxicity, dose response, cytotoxicity control, plate reader, dry powder samples (AID 743046). It counts as functional, cell-based.
Another experiment addresses Paired box protein Pax-8 (Homo sapiens, UniProt Q06710). Kind of experiment: inhibitors of PAX8-driven TPO luciferase reporter, dose response, RMG-I cells, cherry-pick (AID 687027).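 Also: luciferase reporter driven by Pax8 target thyroperoxidase promoter measured by SteadyGlo luminescence.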 Type of experiment: functional, cell-based.
Experiment [14] can be described thus: NIH:OVCAR-3 ovarian cancer cell cytotoxicity, dose response, PAX8 inhibitor project, plate reader, dry powder samples (AID 743044). It counts as functional, cell-based.

Chain of Paired box protein Pax-8 (Q06710 whole entry): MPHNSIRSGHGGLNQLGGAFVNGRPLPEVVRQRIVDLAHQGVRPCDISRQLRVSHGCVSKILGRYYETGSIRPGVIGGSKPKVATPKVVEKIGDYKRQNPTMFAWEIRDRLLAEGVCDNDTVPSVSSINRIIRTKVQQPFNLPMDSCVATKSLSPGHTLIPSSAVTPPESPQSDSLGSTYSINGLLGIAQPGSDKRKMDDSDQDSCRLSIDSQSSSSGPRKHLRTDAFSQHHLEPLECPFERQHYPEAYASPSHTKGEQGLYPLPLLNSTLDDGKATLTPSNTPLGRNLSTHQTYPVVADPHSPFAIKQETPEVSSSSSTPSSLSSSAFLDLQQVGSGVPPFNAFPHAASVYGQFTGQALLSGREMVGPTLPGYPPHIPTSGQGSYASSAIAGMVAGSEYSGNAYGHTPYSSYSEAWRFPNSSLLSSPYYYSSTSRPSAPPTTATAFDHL
Chain of Disintegrin and metalloproteinase domain-containing protein 17 (P78536 whole entry, the tested form may be a part): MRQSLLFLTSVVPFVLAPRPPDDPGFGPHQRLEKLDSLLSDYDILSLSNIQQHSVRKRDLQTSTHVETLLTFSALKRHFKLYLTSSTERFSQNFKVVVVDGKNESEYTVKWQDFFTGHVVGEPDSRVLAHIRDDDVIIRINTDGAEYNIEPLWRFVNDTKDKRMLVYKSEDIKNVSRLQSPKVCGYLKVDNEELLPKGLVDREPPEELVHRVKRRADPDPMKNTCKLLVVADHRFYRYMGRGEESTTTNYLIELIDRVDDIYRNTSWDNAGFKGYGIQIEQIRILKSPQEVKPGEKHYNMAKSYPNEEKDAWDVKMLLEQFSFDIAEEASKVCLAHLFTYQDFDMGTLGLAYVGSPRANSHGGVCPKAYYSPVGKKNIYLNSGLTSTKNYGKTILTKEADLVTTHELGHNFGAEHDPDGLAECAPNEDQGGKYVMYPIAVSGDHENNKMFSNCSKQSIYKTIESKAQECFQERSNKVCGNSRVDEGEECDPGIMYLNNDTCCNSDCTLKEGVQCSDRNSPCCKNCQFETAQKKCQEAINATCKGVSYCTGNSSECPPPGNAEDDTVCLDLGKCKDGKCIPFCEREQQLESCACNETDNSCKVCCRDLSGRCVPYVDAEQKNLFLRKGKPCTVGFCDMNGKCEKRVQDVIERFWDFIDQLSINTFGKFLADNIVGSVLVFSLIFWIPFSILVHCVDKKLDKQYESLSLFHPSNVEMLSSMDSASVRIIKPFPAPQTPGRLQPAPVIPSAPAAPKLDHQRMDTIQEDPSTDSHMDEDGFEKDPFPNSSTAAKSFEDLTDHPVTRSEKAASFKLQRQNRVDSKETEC

As for `Cc1cccc(NS(=O)(=O)c2ccc3[nH]c(=O)cc(C(=O)OC(C)C(=O)Nc4ccc([N+](=O)[O-])cc4)c3c2)c1` (centres undefined), the figures for the IC50 (in experiment [1]; at Fatty acid synthase [2]; on Fatty acid synthase [3]) were > 69.5 µM (inactive), 1.51 µM (active) and 3.66 µM (active), respectively.

For the molecule `C[C@@H]1CN([C@H](C)CO)C(=O)c2ccccc2-c2ccccc2CO[C@@H]1CN(C)Cc1ccc(C(F)(F)F)cc1`, the AC50 (usually the concentration at which the activity in the assay is half-maximal) was 21.5 µM (active) in experiment [4]; 2.16 µM (active) in experiment [5]; 3.53 µM (active) in experiment [6]; 1.93 µM (active) in experiment [7]; 1.82 µM (active) in [8].

With `Cn1nnc(CC[N+](C)(C)C)n1`, the IC50 (commonly the midpoint of a concentration-inhibition curve) against Prothrombin was > 50 µM (not active).

Consider `CCC(C)NS(=O)(=O)c1ccc(NS(C)(=O)=O)cc1` (centres undefined), for which the IC50 is > 109 µM (inactive) in [9] and > 83.3 µM (inactive) in experiment [10].

Turning to `COc1ccc(NC(=O)N(C)C[C@H]2Oc3cc(C#CCC(C)C)ccc3S(=O)(=O)N([C@H](C)CO)C[C@H]2C)cc1`, the AC50 in experiment [4] is 38.3 µM (active); in experiment [5] it was 1.3 µM (active); in experiment [6] it was 1.5 µM (active); in [7] it was 1.21 µM (active); in experiment [8], 1.7 µM (active).

On to `Cc1ccc(C(=O)N2C(CC(=O)Nc3ccc(Cl)cc3)C(=O)NC3CCCCC32)cc1` (centres undefined), for which the IC50 at Prothrombin is 3.25 µM (active).

Turning to `Cc1nc(-c2ccc(C(=O)N3CCOCC3)cc2)cs1`, in experiment [11], the EC50 (commonly the concentration needed to bring the measured effect to its halfway point) was > 50 µM (active). Further, the values for the IC50 in [9] and in experiment [10] were > 109 µM (inactive) and > 83.3 µM (inactive), respectively.

As for `C[C@@H]1CN([C@H](C)CO)C(=O)c2cc(NC(=O)Nc3ccc(C(F)(F)F)cc3)ccc2O[C@@H](C)CCCCO[C@@H]1CN(C)Cc1ccc(Cl)c(Cl)c1`, the AC50 in [12] is 29.1 µM (active); in experiment [13] it was 39.1 µM (active); at Paired box protein Pax-8, 5 µM (active); in experiment [14] it was 20.7 µM (active).
